Tests used:
[1] = tested on: LNCaP cells; assay: Cell proliferation assay (CellTiter-Glo, 5-day exposure), LNCaP; type: cell-based, human; settings: LNCaP, 1000 cells/well; Th-227 labelled at 375 kBq/nmol; 5-day exposure; mean of 1 to 6 experiments
Method: Inhibition of cell proliferation of Thorium-227 labeled PMSA SMOL ligands was tested different prostate cancer cell lines, namely 22Rv1, VCaP, C4-2 (all from ATCC, Manassas, Va., USA) and LNCaP (DMSZ, Braunschweig). Cells were seeded using the following conditions in 384 well plates (Corning) in 30 μl of growth media at 4000 cells/well for VCaP cells and 1000 cells/well for 22Rv1, C4-2 and LNCaP cells.
Cells were cultivated an incubator at 37° C. and 5% C02 over night. On the following days cells were treated in triplicates with serial dilutions of PSMA-SMOLs labeled with Th-227 at a specific activity of 375 kBq/nmol (RCP>70% as assessed by iTLC analysis; compounds where RCP was between 50-70% in individual experiments are marked with an * in the table) using a D300e Digital Dispenser (Tecan). In sister plates cell viability at treatment start (d=0) was determined using CellTiter-Glo® assay (CTG, Promega, Madison, Wis., USA), by adding 30 μl per well CTG solution, incubation for 10 min and reading of Luminescence in a PheraStarFSX instrument (BMG Labtech). After a 5-day exposure in the presenced of test compounds, cell viability of treated or untreated control cells was determined again using CellTiter-Glo® assay (Promega, Madison, Wis., USA). […] The DRC software is a Biobook Spreadsheet that was developed by Bayer AG and Bayer Business Services on the IDBS E-Workbook Suite platform (IDBS: ID Business Solutions Ltd., Guildford, UK).

[2] = tested on: VCaP cells; assay: Cell proliferation assay (CellTiter-Glo, 5-day exposure), VCaP; type: cell-based; settings: 4000 cells/well, Th-227 labelled at 375 kBq/nmol, mean of 1 to 6 experiments
Outline: (§1)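 CellTiter-Glo luminescence, day 0 (sister plates) vs day 5 of exposure to Th-227-labelled PSMA ligands. Seeding: VCaP 4000 cells/well; 22Rv1, C4-2, LNCaP 1000 cells/well; overnight 37 °C, 5% CO2 before treatment.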

[3] = tested on: C4-2 cells; assay: Cell proliferation assay (CellTiter-Glo, 5-day exposure), C4-2; type: cell-based; settings: C4-2, 1000 cells/well, Th-227 labelled at 375 kBq/nmol, mean of 1 to 6 experiments
Outline: as §1

Row | Compound | Proliferation assay on cancer cell lines by TTCs Default Pivot #3 IC50 [kBq/mL] LnCap 1000cells 375kBq/nmol (mean) [1] [kBq/mL] | Proliferation assay on cancer cell lines by TTCs Default Pivot #3 IC50 [kBq/mL] VCap 4000cells 375kBq/nmol (mean) [2] [kBq/mL] | Proliferation assay on cancer cell lines by TTCs Default Pivot #3 IC50 [kBq/mL] C4-2 1000cells 375kBq/nmol (mean) [3] [kBq/mL]
1 | Cc1cc2c(c(=O)n1CC(=O)O)[O][227Th]13[O]c4c(cc(C)n(CC(=O)O)c4=O)C(=O)NCCN(CCCN(CCNC(=O)c4cc(C)n(CC(=O)O)c(=O)c4[O]1)CCNC(=O)c1cc(C)n(CC(=O)NCc4ccc(C(=O)N[C@@H](Cc5ccc6ccccc6c5)C(=O)NCCCC[C@H](NC(=O)N[C@H](CCC(=O)O)C(=O)O)C(=O)O)nc4)c(=O)c1[O]3)CCNC2=O [Example 25-C-D-227Th] | 0.49 | 2.26 | 2.95
2 | CNc1cc(C[C@@H](NC(=O)[C@H]2CC[C@H](CNC(=O)CN3CCN4CCN5CCN(CC3)CC(=O)[O][227Th]([O]C(=O)C4)[O]C(=O)C5)CC2)C(=O)NCCCC[C@H](NC(=O)N[C@@H](CCC(=O)O)C(=O)O)C(=O)O)cc2ccccc12 [Example 37-B-227Th, (3R,10S,14S)-3-{[4-(methylamino)naphthalen-2-yl]methyl}-1,4,12-trioxo-1-{(1r,4S)-4-[(2-{4,7,10-tris[(carboxy-kappaO)methyl]-1,4,7,10-tetraazacyclododecan-1-yl-kappa^2N^1,N^4}acetamido)methyl]cyclohexyl}-2,5,11,13-tetraazahexadecane-10,14,16-tricarboxylato(3−)(^227Th)Thorium] | 0.13 | 0.87 | 1.19
3 | {N^6-[3-(isoquinolin-3-yl)-N-{(1r,4S)-4-[(2-{4,7,10-tris[(carboxy-kappaO)methyl]-1,4,7,10-tetraazacyclododecan-1-yl-kappa^2N^1,N^4}acetamido)methyl]cyclohexane-1-carbonyl}alanyl]-N^2-{[(1S)-1,3-dicarboxypropyl]carbamoyl}-L-lysinato(3−)}(^227Th)Thorium [Example 36-B-227Th] | 0.16 | 0.75 | 3.88
4 | O=C(O)CC[C@H](NC(=O)N[C@@H](CCCCNC(=O)[C@@H](Cc1ccc2c(c1)CCCO2)NC(=O)[C@H]1CC[C@H](CNC(=O)C[N+]23CCN4CCN5CC[N+]6(CC2)CC(=O)[O][227Th-2]36([O]C(=O)C4)[O]C(=O)C5)CC1)C(=O)O)C(=O)O [Example 38-B-227Th, {N^6-[3-(3,4-dihydro-2H-1-benzopyran-6-yl)-N-{(1r,4S)-4-[(2-{4,7,10-tris[(carboxy-kappaO)methyl]-1,4,7,10-tetraazacyclododecan-1-yl-kappa^2N^1,N^4}acetamido)methyl]cyclohexane-1-carbonyl}-D-alanyl]-N^2-{[(1S)-1,3-dicarboxypropyl]carbamoyl}-L-lysinato(3−)}(^227Th)Thorium] | 0.10 | 0.44 | 0.91

Reference: patent publication US20230072421A1, “TARGETED RADIOPHARMACEUTICALS FOR THE DIAGNOSIS AND TREATMENT OF PROSTATE CANCER” (Bayer AS, priority 2019, published 2023)
